This is an account of results in ChEMBL document CHEMBL1132082, “Nonsteroidal androgen receptor agonists based on 4-(trifluoromethyl)-2H-pyrano[3,2-g]quinolin-2-one” (Bioorg Med Chem Lett, 1999).

A word on the IC50: it is the midpoint of a concentration-inhibition curve. The low end stands for greater potency in that assay, the high end for weaker potency in that assay.

What all share (type): functional
Experiment [1] deals with Estrogen receptor (Homo sapiens, UniProt Q92731+P03372). The experiment in a line: In vitro antagonistic activity against human estrogen receptor (hER).
For experiment [2], the target named is T1, Mineralocorticoid receptor (Homo sapiens, UniProt P08235).
T1 sequence (P08235 whole entry): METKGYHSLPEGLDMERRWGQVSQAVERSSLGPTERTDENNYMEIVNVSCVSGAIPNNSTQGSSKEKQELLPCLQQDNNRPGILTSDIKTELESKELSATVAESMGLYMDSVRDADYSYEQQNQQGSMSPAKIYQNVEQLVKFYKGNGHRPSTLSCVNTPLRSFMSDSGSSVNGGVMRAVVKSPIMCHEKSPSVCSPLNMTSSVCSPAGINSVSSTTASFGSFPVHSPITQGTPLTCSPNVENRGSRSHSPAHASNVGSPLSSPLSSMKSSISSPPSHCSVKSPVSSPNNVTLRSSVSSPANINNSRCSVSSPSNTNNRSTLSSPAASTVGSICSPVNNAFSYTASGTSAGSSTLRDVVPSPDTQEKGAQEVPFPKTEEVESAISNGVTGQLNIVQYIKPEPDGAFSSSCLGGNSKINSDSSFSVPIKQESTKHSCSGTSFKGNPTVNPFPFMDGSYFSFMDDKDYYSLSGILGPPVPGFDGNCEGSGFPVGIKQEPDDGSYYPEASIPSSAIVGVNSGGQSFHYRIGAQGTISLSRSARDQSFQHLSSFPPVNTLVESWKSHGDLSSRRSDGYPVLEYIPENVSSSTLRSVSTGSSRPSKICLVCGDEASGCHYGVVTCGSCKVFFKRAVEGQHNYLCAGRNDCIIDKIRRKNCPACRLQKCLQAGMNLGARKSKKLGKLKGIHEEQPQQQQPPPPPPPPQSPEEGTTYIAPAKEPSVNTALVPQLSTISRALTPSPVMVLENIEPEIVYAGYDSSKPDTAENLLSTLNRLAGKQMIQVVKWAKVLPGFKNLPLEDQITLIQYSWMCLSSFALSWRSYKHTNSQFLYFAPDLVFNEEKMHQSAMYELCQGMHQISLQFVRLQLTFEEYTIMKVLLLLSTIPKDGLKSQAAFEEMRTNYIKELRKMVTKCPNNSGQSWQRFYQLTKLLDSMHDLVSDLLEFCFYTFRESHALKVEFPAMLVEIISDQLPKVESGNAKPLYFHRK
Description: In vitro antagonistic activity against human mineralocorticoid receptor (hMR); not active.

For experiment [3], the target named is T2, Mineralocorticoid receptor (Homo sapiens) (UniProt P08235).
T2 sequence (whole entry): T1 sequence (P08235 whole entry)
The experiment in a line: In vitro antagonistic activity against human mineralocorticoid receptor (hMR).

Take `CCC1Nc2cc3oc(=O)cc(C(F)(F)F)c3cc2CC1C` (stereo not given): the Efficacy in experiment [1] and in experiment [3] was less than 20% in each case. The IC50 in experiment [2] was greater than 10 µM.

`CCCC1CCNc2cc3oc(=O)cc(C(F)(F)F)c3cc21` (stereo not given): the Efficacy in experiment [1] and in experiment [3] was less than 20% each time. In addition, in experiment [2], the concentration for half-maximal inhibition (IC50) is greater than 10 µM.

For `O=c1cc(C(F)(F)F)c2cc3c(cc2o1)NCCC3C(F)(F)F` (stereo not given), the Efficacy in experiment [1] and in experiment [3] was less than 20% throughout. This compound returned an IC50 in experiment [2] greater than 10 µM.

For `CC1CCNc2cc3oc(=O)cc(C(F)(F)F)c3cc21` (stereo not given), the Efficacy in experiment [1] and in experiment [3] was less than 20% in each case. The same compound showed an IC50 in experiment [2] greater than 10 µM.

For `CCC1CCNc2cc3oc(=O)cc(C(F)(F)F)c3cc21` (stereo not given), the Efficacy in experiment [1] and in experiment [3] was less than 20% throughout. Besides, in experiment [2], the IC50 was greater than 10 µM.
